Key:
Assay type in all cases: cell-based
[1] = test system: Salmonella enteritidis KCTC 12400; assay: MIC by broth dilution method; settings: S. enteritidis, 37° C., 24 hours
[2] = test system: Escherichia coli KCTC 1039; assay: MIC by broth dilution method; settings: E. coli, 37° C., 24 hours
[3] = test system: Vibrio parahaemolyticus KCTC 27; assay: MIC by broth dilution method; settings: V. parahaemolyticus, 37° C., 24 hours
[4] = test system: Salmonella typhimurium KCTC 2514; assay: MIC by broth dilution method; settings: S. typhimurium, 37° C., 24 hours
[5] = test system: Staphylococcus aureus KCTC 1916; assay: MIC by broth dilution method; settings: S. aureus, 37° C., 24 hours
[6] = test system: 18 species of pathogenic bacteria (aerobic); assay: Agar diffusion antibacterial test, overall (aerobic); settings: all kinds of bacteria (aerobic); treatment concentration of 1.0%
[7] = test system: 8 anaerobic bacterial species; assay: Agar diffusion antibacterial test, overall (anaerobic); settings: anaerobic bacteria; concentration of 1.0%

| MIC [1] [%] | MIC [2] [%] | MIC [4] [%] | MIC [5] [%] | Compound | MIC [3] [%] | Antibacterial effects [6] | Antibacterial activity [7] |
| --- | --- | --- | --- | --- | --- | --- | --- |
| 0.01 | 0.005 | 0.02 | 0.03 | O=C1C(N(CO)C(=O)NCO)N(CO)C(=O)N1CO (stereo not drawn) [Germall II] | 0.02 | – | – |
| – | – | – | – | C=C1C(=O)OC[C@@H]1O [R-(+)-tulipalin B, (4R)-4-hydroxy-3-methylene-oxolan-2-one, reference compound] | – | no antibacterial effects | no antibacterial activity |
| 0.01 | 0.01 | 0.03 | 0.04 | C/C=C/C=C/C(=O)O [Sorbic acid, reference compound] | 0.03 | – | – |

Source: US20080262082A1, “COMPOSITION CONTAINING S-(-)-TULIPALIN B OR ACETYLATED-S-(-)-TULIPALIN B” (BIO SPECTRUM, INC., priority 2007, published 2008)
